Patent US20170354639A1, “DITERPENOID DERIVATIVES AND METHODS OF USE THEREOF” (Biogen MA Inc., priority 2014, published 2017)

Target: Nrf2-Keap1 (Homo sapiens, UniProt Q14145)
Test: DiscoveRx PathHunter Nrf2-Keap1 nuclear translocation functional assay (agonist format)
Assay type: cell-based
Details: in duplicate, agonist mode; for EC50: 10 concentrations, 3-fold serial dilutions, 30 μM top concentration, normalized to CDDO methyl ester and vehicle; for activation at 10 µM: single concentration of 10 μM, normalized to control ligand (CDDO methyl ester) and vehicle
Experimental: DiscoveRx PathHunter® Nrf2-Keap1 Functional Assay
DiscoveRx's Nrf2-Keapl translocation assay was used to profile compounds. Primary Screening was performed in duplicate at a single concentration of 10 μM and EC50 determinations were performed in duplicate at 10 concentrations with 3-fold serial dilutions at a 30 μM top concentration or an otherwise specified top concentration.
The PathHunter® Nuclear Translocation assay detects translocation of a target protein to, or from, the nucleus. In this system, Prolink™ (PK), a small enzyme fragment, is fused to the protein of interest and Enzyme Acceptor (EA) is localized in the nucleus. Activation of the signaling pathway induces the target protein to either transit into the nucleus, thus forcing complementation of the PK and EA fragments, or out of the nucleus, hindering complementation of the fragments.
Cell handling: PathHunter Pathway cell lines were expanded from freezer stocks according to standard procedures. 5000 cells were seeded in Cell Plating Reagent 0 (containing 1% FBS) to a total volume of 20 μL into white walled, 384-well microplates and incubated for the overnight prior to testing.
Agonist format: For Agonist determination, cells were incubated with sample to induce response. Dilution of sample stocks was performed to generate 100× sample in DMSO. Intermediate dilution of sample stocks was performed to generate 5× sample in assay buffer (Cell Plating Reagent 0 containing 1% FBS). 5 μL of 5× sample was added to cells and incubated at room temperature for 6 hours. Vehicle concentration was 1%.
Signal detection: Assay signal was generated through a single addition of 25 μL (100% v/v) of PathHunter Flash Detection reagent, followed by a one hour incubation at room temperature. Microplates were read following signal generation with a PerkinElmer Envision™ instrument for chemiluminescent signal detection.
Data analysis: Compound activity was analyzed using CBIS data analysis suite (ChemInnovation, CA). For agonist mode assays, percentage activity was calculated using the following formula: % Activity=100%×(mean RLU of test sample−mean RLU of vehicle control)/(mean MAX RLU control ligand−mean RLU of vehicle control). For EC50 determination, a control agonist dose response curve was generated in the Keap 1-Nrf2 biosensor assay, data was normalized to the maximal and minimal response observed in the presence of the control ligand and vehicle respectively. CDDO methyl ester was used as a control compound. Compounds were tested in the agonist mode of the assay and data was normalized to the maximal and minimal response observed in the presence of control ligand and vehicle.

Nrf2-Keap1, sequence (Q14145 whole entry): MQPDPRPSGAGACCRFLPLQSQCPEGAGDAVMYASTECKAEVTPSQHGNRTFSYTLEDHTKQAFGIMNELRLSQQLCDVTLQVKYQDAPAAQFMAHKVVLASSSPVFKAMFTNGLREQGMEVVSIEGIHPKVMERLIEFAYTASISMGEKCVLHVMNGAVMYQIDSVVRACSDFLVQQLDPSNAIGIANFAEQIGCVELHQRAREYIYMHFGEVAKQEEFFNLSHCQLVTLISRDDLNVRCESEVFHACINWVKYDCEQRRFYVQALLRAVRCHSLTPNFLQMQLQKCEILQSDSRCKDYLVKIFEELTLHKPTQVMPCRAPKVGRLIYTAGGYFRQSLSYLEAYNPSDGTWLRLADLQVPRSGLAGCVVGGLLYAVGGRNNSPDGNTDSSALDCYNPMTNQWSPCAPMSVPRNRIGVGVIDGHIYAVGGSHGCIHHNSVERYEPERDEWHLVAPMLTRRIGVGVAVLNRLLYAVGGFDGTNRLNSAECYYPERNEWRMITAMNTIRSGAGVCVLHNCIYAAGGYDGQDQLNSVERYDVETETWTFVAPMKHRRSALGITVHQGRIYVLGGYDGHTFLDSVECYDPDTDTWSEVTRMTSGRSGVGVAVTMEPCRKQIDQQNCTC

Row | SMILES | EC50 | activation at 10 µM (6 h) | activation at 10 µM (6 hours)
1 | C=C1CC[C@@H]2[C@]3(C)COS(=O)O[C@@H]3CC[C@@]2(C)[C@@H]1C/C=C1/C(=O)OC[C@@H]1NC=O (stereo partly drawn) [Example 21, N-((3R,E)-4-(2-((4aR,6aS,7R,10aS,10bR)-6a,10b-dimethyl-8-methylene-3-oxidodecahydro-1H-naphtho[2,1-d][1,3,2]dioxathiin-7-yl)ethylidene)-5-oxotetrahydrofuran-3-yl)formamide] | > 2000 nM | 51 to 100% | –
2 | C=C1CC[C@H]2[C@@](C)(CC[C@@]3(C)OS(=O)OC[C@@]23C)[C@@H]1C/C=C1/C(=O)OCC1NC=O (stereo partly drawn) [Example 22, N-((E)-5-oxo-4-(2-((4aR,6aS,7R,10aS,10bR)-4a,6a,10b-trimethyl-8-methylene-3-oxidodecahydro-1H-naphtho[2,1-d][1,3,2]dioxathiin-7-yl)ethylidene)tetrahydrofuran-3-yl)formamide] | 500 to 2000 nM | 51 to 100% | –
3 | CC1(C)CCC[C@@]2(C)[C@H]1CCC1(CC1)[C@@H]2C/C=C1\C(=O)OCC1O (stereo partly drawn) [Example 23, (Z)-4-hydroxy-3-(2-((1′S,4a′S,8a′S)-5′,5′,8a′-trimethyloctahydro-1′H-spiro[cyclopropane-1,2′-naphthalen]-1′-yl)ethylidene)dihydrofuran-2(3H)-one] | – | 51 to 100% | –
4 | CC1(C)CCC[C@@]2(C)[C@H]1CCC1(CC1)[C@@H]2C/C=C1/C(=O)OC[C@H]1NC=O [Example 24, N—((S,E)-5-oxo-4-(2-((1′S,4a′S,8a′S)-5′,5′,8a′-trimethyloctahydro-1′H-spiro[cyclopropane-1,2′-naphthalen]-1′-yl)ethylidene)tetrahydrofuran-3-yl)formamide] | – | 51 to 100% | –
5 | CC1(C)CCC[C@@]2(C)[C@H]1CCC1(CC1)[C@@H]2C/C=C1\C(=O)OC[C@H]1NC=O [Example 25, N—((S,Z)-5-oxo-4-(2-((1′S,4a′S,8a′S)-5′,5′,8a′-trimethyloctahydro-1′H-spiro[cyclopropane-1,2′-naphthalen]-1′-yl)ethylidene)tetrahydrofuran-3-yl)formamide] | – | 51 to 100% | –
6 | CC(=O)N[C@@H]1COC(=O)/C1=C/C[C@H]1C2(CC[C@H]3C(C)(C)CCC[C@@]31C)CC2 [Example 26, N—((S,E)-5-oxo-4-(2-((1′S,4a′S,8a′S)-5′,5′,8a′-trimethyloctahydro-1′H-spiro[cyclopropane-1,2′-naphthalen]-1′-yl)ethylidene)tetrahydrofuran-3-yl)acetamide] | – | 30 to 50% | –
7 | CC(=O)N[C@@H]1COC(=O)/C1=C\C[C@H]1C2(CC[C@H]3C(C)(C)CCC[C@@]31C)CC2 [Example 27, N—((S,Z)-5-oxo-4-(2-((1′S,4a′S,8a′S)-5′,5′,8a′-trimethyloctahydro-1′H-spiro[cyclopropane-1,2′-naphthalen]-1′-yl)ethylidene)tetrahydrofuran-3-yl)acetamide] | – | 30 to 50% | –
8 | C=C1CC[C@@H]2[C@]3(C)COS(=O)O[C@@H]3CC[C@@]2(C)[C@@H]1C/C=C1\C(=O)OC[C@H]1NC=O (stereo partly drawn) [Example 28, N-((3S,Z)-4-(2-((4aR,6aS,7R,10aS,10bR)-6a,10b-dimethyl-8-methylene-3-oxidodecahydro-1H-naphtho[2,1-d][1,3,2]dioxathiin-7-yl)ethylidene)-5-oxotetrahydrofuran-3-yl)formamide] | – | 51 to 100% | –
9 | C=C1CC[C@@H]2[C@]3(C)COS(=O)O[C@@H]3CC[C@@]2(C)[C@@H]1C/C=C1\C(=O)OC[C@@H]1NC=O (stereo partly drawn) [Example 29, N-((3R,Z)-4-(2-((4aR,6aS,7R,10aS,10bR)-6a,10b-dimethyl-8-methylene-3-oxidodecahydro-1H-naphtho [2,1-d][1,3,2]dioxathiin-7-yl)ethylidene)-5-oxotetrahydrofuran-3-yl)formamide] | – | 51 to 100% | –
10 | CC1(C)CCC[C@@]2(C)[C@H]1CCC1(CC1)[C@@H]2CC/C=C1/C(=O)OCC1O (stereo partly drawn) [Example 32, (E)-4-hydroxy-3-(3-((1′S,4a′S,8a′S)-5′,5′,8a′-trimethyloctahydro-1′H-spiro[cyclopropane-1,2′-naphthalen]-1′-yl)propylidene)dihydrofuran-2(3H)-one] | – | 30 to 50% | –
11 | CC1(C)CCC[C@@]2(C)[C@H]1CCC1(CC1)[C@@H]2CC/C=C1/C(=O)OC[C@H]1NC=O [Example 33, N-((S,E)-5-oxo-4-(3-((1′S,4a′S,8a′S)-5′,5′,8a′-trimethyloctahydro-1′H-spiro[cyclopropane-1,2′-naphthalen]-1′-yl)propylidene)tetrahydrofuran-3-yl)formamide] | – | 30 to 50% | –
12 | C=C1CC[C@@H]2[C@]3(C)COS(=O)O[C@@H]3CC[C@@]2(C)[C@@H]1C/C=C1/C(=O)OCC1NC(=O)COC (stereo partly drawn) [Example 40A, N-((E)-4-(2-((4aR,6aS,7R,10aS,10bR)-6a,10b-dimethyl-8-methylene-3-oxidodecahydro-1H-naphtho[2,1-d][1,3,2]dioxathiin-7-yl)ethylidene)-5-oxotetrahydrofuran-3-yl)-2-methoxyacetamide] | – | – | 51 to 100%

Further lines, with some results ahead:

Row | EC50 | activation at 10 µM (6 h) | SMILES | activation at 10 µM (6 hours)
13 | – | 30 to 50% | CC1(C)CCC[C@@]2(C)[C@H]1CCC1(CC1)[C@@H]2CC/C=C1\C(=O)OC[C@H]1NC=O [Example 34, N-((S,Z)-5-oxo-4-(3-((l′S,4a′S,8a′S)-5′,5′,8a′-trimethyloctahydro-1′H-spiro[cyclopropane-1,2′-naphthalen]-1′-yl)propylidene)tetrahydrofuran-3-yl)formamide] | –
14 | > 2000 nM | 51 to 100% | CC(=O)N[C@@H]1COC(=O)/C1=C/CC[C@H]1C2(CC[C@H]3C(C)(C)CCC[C@@]31C)CC2 [Example 35, N-((S,E)-5-oxo-4-(3-((1′S,4a′S,8a′S)-5′,5′,8a′-trimethyloctahydro-1′H-spiro[cyclopropane-1,2′-naphthalen]-1′-yl)propylidene)tetrahydrofuran-3-yl)acetamide] | –
15 | > 2000 nM | 51 to 100% | CC(=O)N[C@@H]1COC(=O)/C1=C\CC[C@H]1C2(CC[C@H]3C(C)(C)CCC[C@@]31C)CC2 [Example 36, N—((S,Z)-5-oxo-4-(3-((1′S,4a′S,8a′S)-5′,5′,8a′-trimethyloctahydro-1′H-spiro[cyclopropane-1,2′-naphthalen]-1′-yl)propylidene)tetrahydrofuran-3-yl)acetamide] | –
16 | – | 30 to 50% | CC1(C)CCC[C@@]2(C)[C@H]1CCC1(CC1)[C@@H]2CC/C=C1/C(=O)OC[C@H]1NS(C)(=O)=O [Example 37, N—((S,E)-5-oxo-4-(3-((1′S,4a′S,8a′S)-5′,5′,8a′-trimethyloctahydro-1′H-spiro[cyclopropane-1,2′-naphthalen]-1′-yl)propylidene)tetrahydrofuran-3-yl)methanesulfonamide] | –
17 | – | 30 to 50% | CC1(C)CCC[C@@]2(C)[C@H]1CCC1(CC1)[C@@H]2CC/C=C1\C(=O)OC[C@H]1NS(C)(=O)=O [Example 38, N—((S,Z)-5-oxo-4-(3-((1′S,4a′S,8a′S)-5′,5′,8a′-trimethyloctahydro-1′H-spiro[cyclopropane-1,2′-naphthalen]-1′-yl)propylidene)tetrahydrofuran-3-yl)methanesulfonamide] | –
18 | < 500 nM | – | C=C1CC[C@@H]2[C@@H](C)[C@](O)(C(F)(F)F)CC[C@@]2(C)[C@@H]1C/C=C1/C(=O)OC[C@H]1O [Example 42A, (S,E)-4-hydroxy-3-(2-((1R,4aR,5R,6S,8aR)-6-hydroxy-5,8a-dimethyl-2-methylene-6-(trifluoromethyl)decahydronaphthalen-1-yl)ethylidene)dihydrofuran-2(3H)one] | –
19 | < 500 nM | – | C=C1CC[C@@H]2[C@@H](C)[C@@](O)(C(F)(F)F)CC[C@@]2(C)[C@@H]1C/C=C1/C(=O)OC[C@H]1O [Example 42B, (S,E)-4-hydroxy-3-(2-((1R,4aR,5R,6R,8aR)-6-hydroxy-5,8a-dimethyl-2-methylene-6-(trifluoromethyl)decahydronaphthalen-1-yl)ethylidene)dihydrofuran-2(3H)-one] | –
20 | > 2000 nM | – | CC1=CC[C@@H]2[C@@H](C)[C@](O)(C(F)(F)F)CC[C@@]2(C)[C@@H]1C/C=C1/C(=O)OC[C@H]1O [Example 47, (S,E)-4-hydroxy-3-(2-((1R,4aR,5R,6S,8aR)-6-hydroxy-2,5,8a-trimethyl-6-(trifluoromethyl)-1,4,4a,5,6,7,8,8a-octahydronaphthalen-1-yl)ethylidene)dihydrofuran-2(3H)-one] | –
